Experimental data from patent US9771563B2, “Chemical approaches for generation of induced pluripotent stem cells” (The Scripps Research Institute, priority 2008, dated 2017).

What was measured:
[1] = tested on: mouse embryonic fibroblasts (129 or OG2 MEFs); experiment: Screen for iPSC generation from MEFs transduced with Oct4/Klf4 (OK); format: cell-based
Protocol: Unmodified MEFs derived from E13-14 embryos of the 129 mice were used for the initial screen. MEFs were plated on Matrigel at 3.5×10^4 cells/well of a 6-well plate and transduced with OK (retroviral vectors expressing Oct4 and Klf4) alone. Within 14-21 days, treated cells were assessed for the appearance of colonies that had the characteristic embryonic stem cell (ESC) colony morphology and were positive for the pluripotency marker alkaline phosphatase (ALP). Such OK-transduced cells generated only a few small non-compact colonies, which were weakly positive for ALP expression. These colonies initially appeared within 21 days after viral transduction and were difficult to expand. Therefore, such assay system offered a clean background for the identification of small molecules having desirable reprogramming inducing activity. Using this system, compounds from a library of around 2000 known small molecules (see Experimental Procedures below) were screened and were identified as hits when they induced the appearance of ESC colonies that were strongly positive for ALP within 14-21 days after treatment. This image-based method provided a more accurate assessment of reprogramming as compared to homogenous reporter-based assay. BIX appeared to have the strongest effect with reproducible induction of more than 1-2 compact ESC-like colonies with high ALP expression. We observed that when MEFs were treated with BIX after OK viral transduction, compact colonies with strong ALP expression could be readily detected within approximately 14-21 days. These cells were also positive for Nanog, Oct4 and SSEA-1 expression. […] However, the reprogramming efficiency in MEFs transduced with OK and treated with BIX was still low, about 2 colonies/3.5×10^4 cells, in comparison to the four factor-induced reprogramming of MEFs or the OK/BIX NPC reprogramming (Shi, Y. et al., Cell Stem Cell, 2:525-528 (2008)). Therefore, we conducted a second screen using a similar protocol, but where BIX was added to the basal media after OK viral transduction. This provided a more permissive platform to identify new small molecules that could further improve reprogramming efficiency. More importantly, this second screen could facilitate discovery of small molecules that impact reprogramming in a more specific manner, for example by acting on signal transduction pathways rather than on histone or DNA modifying enzymes. In this second screen, we again assayed the library of around 2000 known small molecules (see Experimental Procedures), and confirmed two compounds that were able to act in a synergistic manner with BIX to improve reprogramming based on the criteria of the screen. […] Therefore, RG108 was not pursued further for this study. Instead, we focused our phenotypic and functional characterization on another small molecule that was identified in the second screen, BayK, an L-calcium channel agonist. […] Therefore, BayK might play a more specific role in the reprogramming process. When 129 MEFs were transduced with empty retrovirus (negative control); no colonies observed. When 129 MEFs were transduced with OK without small molecules; few small flattened colonies with weak ALP expression present. […] When OK-transduced MEFs were treated with BIX in combination with BayK, a significant increase in the number of ALP^+ colonies that closely resemble the mESC morphology could be observed (˜7 colonies) as compared to OK-transduced MEFs treated with BIX alone (˜2 colonies).
Primary 12952/SvPasCrlf (primary screen) or ROSA26^+/−/OG2^+/− (secondary screen) MEFs were plated onto Matrigel (1:50; BD Biosciences, Bedford, Mass.) coated dishes at a density of 3.5×10^4 cells per well of a 6-well plate. Twenty-four hours later, these cells were transduced overnight with defined retroviruses at 37° C., 5% CO2. […] (all products were from Invitrogen, Carlsbad, Calif., except where mentioned). […]

mES R1 cells = experiment: Proliferation assay; format: cell-based, mouse; conditions: 2 μM BayK, 1 μM BIX; 15, 24, 48 hours; vs DMSO
Protocol: mES R1 cells were plated onto gelatin-coated 6-well plates at a density of 2×10^5 cells/well in complete mES cell media. Upon cell attachment, app. 12 hours, the cells were treated either with DMSO, 1 μM BIX, 2 μM BayK, and a combination of both, in triplicate. At 15, 24 and 48 hours, the cells were detached using trypsin, and counted using a hemocytometer. Trypan blue (Sigma-Aldrich, St. Louis, Mo.) was used for dead cell exclusion.

OG2+/-/ROSA26+/- MEFs = experiment: Assessment of SOX2 expression after compound treatment (RT-PCR); format: cell-based, mouse; conditions: 2 μM BayK, 1 μM BIX, 6 days
Protocol: OG2^+/−/ROSA26^+/− MEFs were plated onto 6-well plate at a density of 3.4×10^4 cells per well. On the following day, the cells were treated with DMSO, 1 μM BIX, 2 μM BayK, and a combination of both, in triplicate, for 6 days. The media was refreshed at day 3. RNA from each well was then isolated using the RNAeasy Mini Kit (Quiagen). Reverse transcription of the RNA was performed using the iScript™ cDNA Synthesis Kit (BioRad, Hercules, Calif.). Amplification of endogenous Sox2 was done using primers previously published (Takahashi, K., Okita, K., Nakagawa, M., and Yamanaka, S. (2007). Induction of pluripotent stem cells from fibroblast cultures. Nat Protoc 2, 3081-3089; Takahashi, K., and Yamanaka, S. (2006). Induction of pluripotent stem cells from mouse embryonic and adult fibroblast cultures by defined factors. Cell 126, 663-676) with Platinum PCR SuperMix (Invitrogen) on a Mastercycler® ep gradient PCR machine (Eppendorf).

cellular reprogramming = experiment: Enhancement of cellular reprogramming by nuclear receptor ligands; format: cell-based
mouse fibroblasts = experiment: Reprogramming of mouse fibroblasts with exogenous poly-Arg transcription factor proteins; format: cell-based; conditions: cells incubated with transcription factor proteins plus agent
Protocol: Mouse fibroblasts were grown in mESC medium supplemented with 8 μg/ml of either Oct4/Sox2/Klf4 or Oct4/Sox2/Klf4/Myc (all proteins comprising poly-Arg as described above) for 6-8 hours, washed, and incubated for 2-3 days in mESC media without the above-listed transcription factors. This (4-12 hours with, 1-3 days without) was repeated a number (1, 2, 3, 4, or more) of times and then the cells were cultured in mESC for two weeks.
Mouse fibroblasts were grown in mESC growth medium [Knockout DMEM (Invitrogen) supplemented with 10% ES-FBS+10% KSR, 0.1 mM 2-ME, 1% Glutamax, 1% Non-essential amino acids, 1% EmbryoMax ESC Qualified Nucleosides (Millipore), and 10^3 units/ml LIF (ESGRO, Chemicon International)] supplemented with 8 μg/ml of Oct4/Sox2/Klf4/Myc (all four transcription factors are tagged with poly-Arg […]; SEQ ID NO:2) for 4-12 hours, followed by culturing the cells in the absence of the Oct4/Sox2/Klf4/Myc polypeptides for one day. This procedure was repeated 4 times. The cells were then cultured in mESC medium for another two weeks. iPSC clones were detected by colony morphology and expression of pluripotency markers. An intermediate iPSC clone, which expresses ALP but not Oct4 (Oct4), was dissociated with Trypsin-EDTA. The clone was then expanded by continuous culturing with regular mESC medium or medium supplemented with 0.5 μM PD0325901, 3 μM CHIR99021, 0.5 μM A-83-01. The number of Oct4-positive colonies were counted 2 weeks after small molecule treatment (FIG. 14).

OG2 MEFs = experiment: Reprogramming of OG2 MEFs retrovirally transduced with OSKM or OSK (EGFP positive colonies); format: cell-based, mouse; conditions: 2 μM SB431542, 5 μM CHIR99021, 0.1 μM PD0325901
Protocol: MEFs were derived from OG2 mice according to the protocol reported on WiCell Research Institute website: “Introduction to human embryonic stem cell culture methods”. OG2 transgenic mice carry both GFP under the control of the Oct4 promoter. MEFs were transduced with either (1) Oct4, Klf4, Sox2 and c-Myc; or (2) Oct4, Klf4, and Sox2 as described (Takahashi & Yamanaka, Cell. 2006; 126:663-676). […] Transduced MEFs were then treated with chemicals or chemical combinations, including GSK-3 inhibitor CHIR99021 (5 μM), TGFβ receptor inhibitor SB431542 (2 μM), MEK inhibitor PD0325901 (0.1 μM) for 11 days (for Oct4, Klf4, Sox2 and c-Myc transduced MEFs) or 13 days (for Oct4, Klf4 and Sox2 transduced MEFs), and EGFP positive colonies were counted.

[2] = tested on: human primary fibroblasts (CRL2097 or BJ); experiment: Reprogramming of human primary fibroblasts transduced with 4TFs; format: cell-based
Protocol: We tested known inhibitors of the TGFβ receptor and MEK on 1×10^4 [Feng, B. et al., Cell Stem Cell 4, 301-12 (2009)] human primary fibroblasts (CRL2097 or BJ) that were retrovirally transduced with the 4TFs (Oct4, Klf4, Sox2 and c-Myc), for their effects on reprogramming kinetics and efficiency. On day 7 (D7) post-infection, the compounds were added, individually or in combinations, and the cultures were examined for iPSCs over the next 1-3 weeks.
The Slc7a1-expressing human fibroblast cells were seeded at 1×10^5 cells/well of a 6 well plate on the day 1. On day 2, 0.25 ml of each retroviral supernatant was added to the cells in the presence of 6 μg/ml polybrene. A second round of transduction was done on day 3. Infection efficiency was estimated by fluorescence microscopy on cells transduced in parallel with GFP or RFP gene-carrying retroviruses. Seven days after initial transduction, fibroblasts were harvested by trypsinization and re-plated at 1×10^4 cells/well of a 6 well plate coated with matrigel (1:50 dilution, cat 354234, BD Biosciences). For compound treatment, the cells were cultured in human reprogramming medium (DMEM/F12, 20% Knockout serum replacer, lx MEM Non-Essential amino acid, lx glutamax, 0.11 mM 2-Mercaptoethanol, 20 ng/ml bFGF and 1,000 U/ml LIF) and were treated with 2 μM SB431542 (Stemgent), 0.5 μM PD0325901 (Stemgent), or combinations of the compounds. The media were changed every 2-3 days depending on the cell density. Seven days after compound treatment, either the plates were fixed and stained for Alkaline phosphatase (ALP) activity, or stained for protein markers, or the cultures were continued with or without indicated splitting by trypsinization till day 30. For split cultures, the cells were split (1:4) and re-plated onto irradiated CF-1 MEF feeder layer (2.5×10^5 cells/well) in each well of 6 well plate and were split (1:10) again on day 21. The cells were maintained in the same media and compound cocktail described above except for the concentrations of PD0325901 (0.5 μM for D14 and 1 μM for D21) and SB431542 (0.5-1 μM after D14). The iPSC colonies were subsequently maintained in conventional hESC media in the absence of the above compounds.
Alkaline phosphatase staining was performed using ALP detection kit (cat no: SCR004, Chemicon) according to the product instructions. For immunocytochemistry, cells were fixed in 4% paraformaldehyde (10 min, RT), washed twice with PBS, blocked using 5% normal donkey serum (Chemicon) and 0.1% TritonX-100 (15 min, RT) and then treated with primary antibodies overnight at 4° C. The primary antibodies used were anti-NANOG (cat no: AB9220, Chemicon, 1:1,000); anti-OCT4 (cat no: sc-5279, Santa Cruz biotech, 1:200), anti-SSEA 4 (cat no: mab4304, Chemicon, 1:500), anti-Tra-1-81 (cat 560123, BD Biosciences, 1:100), anti-Tra-1-81 (mAb 4381, Chemicon, 1:500), anti-βIII TUBULIN (cat no: MMS-435P, Covance Research Products Inc, 1:1000), anti-PDX 1 (1:500) (a kind gift from Dr. C. Wright), anti-BRACHYURY (cat No: AF2085, R & D, final concentration 0.2 μg/ml). The cells were washed twice with PBS and then treated with secondary antibodies for 1 hour at room temperature. The secondary antibodies used were Alexa fluor 488 donkey anti-rabbit or anti-mouse IgG (Invitrogen, 1:1,000) and Alexa fluor 555 donkey anti-rabbit or anti-mouse IgG (Invitrogen, 1:1,000). Nuclei were stained with 0.5 μg/ml DAPI (Sigma). Images were captured using a Nikon Eclipse TE2000-U/X-cite 120 EXFO microscope with a photometric CoolSnap HQ2 camera.
We tested the TGFβ receptor inhibitor (SB431542), MEK inhibitor (PD0325901) and GSK-3 inhibitor (CHIR99021), on human fibroblast crl2097 that were retrovirally transduced with Oct4, Klf4, Sox2 and c-Myc, for their effects on reprogramming kinetics and efficiency. Conditions are the same as set forth in Example 5. Data were collected 8 days after compound treatment.

SMILES: COC(=O)C1=C(C)NC(C)=C([N+](=O)[O-])C1c1ccccc1C(F)(F)F (stereo not shown) [BayK8644]
- reprogramming efficiency (GFP+ colonies) ([1]; OG2 MEFs transduced with OK, FIG. 3): did not increase reprogramming efficiency above OK-transduced MEF control
- reprogramming activity on OK-transduced MEFs ([1]; in the absence of BIX): no observable reprogramming activity on OK-transduced MEFs in the absence of BIX
- proliferation of mES cells (cell number) (mES R1 cells): does not lead to a change in proliferation
- SOX2 expression (OG2+/-/ROSA26+/- MEFs): does not induce SOX2 expression

SMILES: C=C(c1ccc(C(=O)O)cc1)c1cc2c(cc1C)C(C)(C)CCC2(C)C [Bexarotene]
- cellular reprogramming (cellular reprogramming; at 3 μM): can enhance cellular reprogramming

SMILES: CC(C)C[C@H](NC(=O)OCC1c2ccccc2-c2ccccc21)C(=O)O [Fmoc-Leu]
- cellular reprogramming (cellular reprogramming; used at 5 μM): can enhance cellular reprogramming

SMILES: NC(=O)c1ccc(-c2nc(-c3ccc4c(c3)OCO4)c(-c3ccccn3)[nH]2)cc1 [SB431542]
- efficiency and speed of development of pluripotent cells (mouse fibroblasts): improved efficiency and speed of development of pluripotent cells
- reprogramming efficiency (OG2 MEFs; Oct4, Klf4, Sox2 and c-Myc transduced MEFs, 11-day treatment): ~1.8%
- reprogramming efficiency (OG2 MEFs; Oct4, Klf4, and Sox2 transduced MEFs, 13-day treatment): ~1.2%
- ALP+ colonies with hESC-like morphology (FIG. 7A) ([2]; 4TFs transduced fibroblasts, 7 days after compound treatment, SB431542 at 2 μM): yielded colonies with hESC-like morphology as early as 7 days after compound treatment
- number of granulate (partially reprogrammed) colonies ([2]; 30 days): outnumbered by several fold the few hESC-like colonies
- dose dependence of effect on reprogramming ([2]; FIG. 7): dose dependent
- ALP+ colonies with characteristic hESC-like morphology ([2]; day 7 post-treatment (D14), SB431542 2 μM, PD0325901 0.5 μM, 1×10^4 cells): 1-2 colonies
